What was measured:
Assay type in all cases: cell-based, human
[1] = tested on: overall methylation of DNA; assay: Overall methylation of DNA with antibody against 5-methyl-cytosine; conditions: A549, 5 μM, 48 hr exposure
Protocol: (§1) DNMT1 protein expression was measured by Western Blotting after exposure to RX-3117 for 24 or 48 hr. DNMT1 RNA expression was measured by real-time PCR after 24 and 48 hr exposure to RX-3117. DNMT enzyme activity was measured in isolated nuclei after exposure 1 μM RX-3117 or 5 μM aza-CdR using a DNA methyltransferase assay kit provided by EpiGentek using the ability of a CpG dinding domain to bind to methylated DNA. In A549 cells the effect of 5 μM RX-3117 on overall methylation was measured with a specific antibody against 5-methyl-cytosine. Bands on Western blots were visualized using appropriate InfraRedDye using an Odyssey InfraRed imager.

DNMT1 = assay: DNMT enzyme activity in isolated nuclei (DNA methyltransferase assay kit); conditions: A2780 nuclear extracts, 5 μM, 24 hr
Protocol: as §1

PCFT = PCFT mediated transport of radiolabeled MTX; conditions: CEM cells, 24 hr; RX-3117 29.6 μM; DAC positive control
Description: In this study, the following cell lines were used: (1) CCRF-CEM cells and its MTX resistant variant CEM-MTX, characterized by a deficiency of the reduced folate carrier (RFC) (Jansen G., et al., JBC 273 (1998) 30189-30198). The PCFT gene in CEM cells is highly methylated. (Gonen N., et al., BBRC 376 (2008) 787-92.); (2) CEM cells cultured in RPMI medium with 10% fetal bovine serum (FBS); and (3) A549 and SW1573 non-small cell lung cancer (NSCLC) and A2780 ovarian cancer cell lines cultured in DMEM medium with 10% FBS.
MTX transport was measured using radiolabeled MTX in CEM wild type and CEM-MTX cell lines. CEM cells have a high RFC activity. CEM-MTX are completely deficient in RFC-mediated transport. CEM cells have a highly methylated PCFT transporter and a very low PCFT mediated transport (Gonen N., et al., BBRC 376 (2008) 787-92). MTX transport at pH 7.4 is predominantly RFC mediated and less than 2% by PCFT. Folic acid was used to inhibit PCFT mediated transport. […] CEM and CEM-MTX cells were exposed to 29.6 μM RX-3117 and to 0, 19 μM aza-CdR as a positive control. MTX transport was measured after 24 hr to the drugs in a 3 minutes uptake assay using 2 μM [3′,5,′7-3H]-MTX.

Nc1ncn([C@H]2C[C@H](O)[C@@H](CO)O2)c(=O)n1 [DAC, 5-aza-2′-deoxycytidine, reference compound]
decrease of overall methylation of DNA [1]: 9%
inhibition of DNMT1 activity (DNMT1): 31%
increase of PCFT mediated transport of MTX (PCFT): 4 fold

Reference: patent US10278971B2, “Fluorocyclopentenylcytosine methods of use” (Rexahn Pharmaceuticals, Inc., priority 2015, dated 2019)
